Measured values: ChEMBL document CHEMBL6127117, “Divergent Total Synthesis of Isoflavone Natural Products and Their Potential as Therapeutic Agents for TTR Amyloidosis” (J Nat Prod, 2024)
The source made the active and inactive calls. No cut-off for these calls is given here.

Columns and labels:
[1] = biological target: Transthyretin (Homo sapiens) (UniProt P02766); assay: Binding affinity to TTR in human plasma assessed as stabilization of TTR tetramer by measuring fluorescence intensity measured after 6 hrs by absorbance based analysis; type: cell-free; details: dose 20-100 µM
[2] = system: Transthyretin (Homo sapiens), P02766 [V50M]; assay: Inhibition of acid mediated TTR V30M mutant (unknown origin) aggregation under pH 4.7 at 20 uM measured upto 6 days by thioflavin-T fluorescence assay; details: time <= 6.0 day
[3] = biological target: Transthyretin (Homo sapiens) (UniProt P02766); assay: Binding affinity to TTR in human plasma assessed as stabilization of TTR tetramer by measuring fluorescence intensity at 50 uM measured after 6 hrs by absorbance based analysis relative to control; type: cell-free
[4] = biological target: Transthyretin (Homo sapiens) (UniProt P02766); assay: Binding affinity to TTR in human plasma assessed as stabilization of TTR tetramer by measuring fluorescence intensity at 100 uM measured after 6 hrs by absorbance based analysis relative to control; type: cell-free
[5] = biological target: Transthyretin (Homo sapiens) (UniProt P02766); assay: Binding affinity to TTR in human plasma assessed as stabilization of TTR tetramer by measuring fluorescence intensity at 20 uM measured after 6 hrs by absorbance based analysis relative to control; type: cell-free

Row | SMILES | Activity [1] | inhibition [2] | Activity [3] [%] | Activity [4] [%] | Activity [5] [%]
1 | CC(C)=CCc1cc(-c2coc3c4c(cc(O)c3c2=O)OC(C)(C)C=C4)ccc1O | Dose-Dependent Effect | inactive |  |  | 
2 | CC(C)=CCc1c2c(c3occ(-c4ccc(O)cc4O)c(=O)c3c1O)C=CC(C)(C)O2 | Dose-Dependent Effect | Active | 50 | 35 | 70
3 | CC(C)=CCc1c2c(c(O)c3c(=O)c(-c4ccc(O)c(O)c4)coc13)C=CC(C)(C)O2 | Dose-Dependent Effect | Active |  |  | 
4 | CC(C)=CCOc1ccc(-c2coc3c4c(cc(O)c3c2=O)OC(C)(C)C=C4)cc1 | Dose-Dependent Effect | inactive |  |  | 

Next, values leading:

Row | Activity [1] | inhibition [2] | Activity [3] [%] | Activity [4] [%] | Activity [5] [%] | SMILES
5 | Dose-Dependent Effect | inactive |  |  |  | CC(C)=CCc1cc(-c2coc3cc4c(c(O)c3c2=O)C=CC(C)(C)O4)ccc1O
6 | Dose-Dependent Effect | inactive |  |  |  | CC(C)=CCOc1ccc(-c2coc3cc4c(c(O)c3c2=O)C=CC(C)(C)O4)cc1
7 | Dose-Dependent Effect | Active |  |  |  | CC1(C)C=Cc2c(cc3occ(-c4ccc(O)cc4)c(=O)c3c2O)O1
8 | Dose-Dependent Effect | Active |  |  |  | CC1(C)C=Cc2c(cc(O)c3c(=O)c(-c4ccc(O)cc4)coc23)O1
9 | Dose-Dependent Effect | inactive |  |  |  | C=CC(C)(C)c1cc(-c2coc3cc4c(c(O)c3c2=O)C=CC(C)(C)O4)ccc1O
